Test results published in US20100215618A1, “NOVEL COMPOUNDS - 644” (Arrow Therapeutics Limited, priority 2009, published 2010).
Where two headings read alike, the source gives them in different places.

Legend:
[1] = test system: HCV replicon cells Huh 9B (genotype 1b); assay: 1b Replicon Assay (luciferase readout); assay type: cell-based; conditions: Hepatitis C virus, Huh 9B replicon cells, 72 h, luciferase activity
[2] = test system: HCV replicon cells Huh 9B; assay type: cell-based; conditions: Huh 9B replicon cells, 72 h, methylene blue, total cell area reduced by 50%
Procedure: HCV replicon cells Huh 9B (ReBlikon), containing the firefly luciferase-ubiquitin-neomycin phosphotransferase fusion protein and EMCV-IRES driven HCV polyprotein with cell culture adaptive mutations.
Replicon cells were trypsinised and counted. Cells were diluted to 100,000 cells/ml and 100 μl used to seed one opaque white 96-well plate (for the replicon assay) and one flat-bottomed clear plate (for the tox assay) for every five compounds to be tested for IC50. Wells G12 and H12 were left empty in the clear plate as the blank. Plates were then incubated at 37° C./5% CO2 for 24 h.
On the following day compound dilutions were prepared in medium at twice their desired final concentration in a clear round bottomed plate. All dilutions have a final DMSO concentration of 1%.
Controls and compounds were transferred from the dilution plates to the assay plates (containing the cells) at 100 μl/well in duplicate wells.
Exception: no compound was added to wells A1 and A2 of either plate and 100 μl of 1% DMSO was added to these instead. Plates were then incubated at 37° C./5% CO2 for 72 h.
The clear plate was stained with 100 μA 0.5% methylene blue in 50% ethanol at room temperature for 1 h, followed by solvation of the absorbed methylene blue in 100 μl per well of 1% lauroylsarcosine. Absorbance of the plate was measured on a microplate spectrophotometer (Molecular Devices) and the absorbance for each concentration of compound expressed as a proportion of the relative DMSO control. The TD50, the is concentration of drug required to reduce the total cell area by 50% relative to the DMSO controls, was calculated by plotting the absorbance at 620 nm after background substraction against drug concentration.

in vitro = in vitro ADME, Canine; conditions: dog, MDCK
Procedure: Cells used: MDCK (Madin-Darby Canine Kidney) cells, ATCC collection # CCL-34, are used to model the intestinal barrier. Cell culture conditions: cells were cultured at 37° C. in a 5% CO2 environment and split twice a week on seeding at 4×10^5 cells/flask (75 cm^2) on day 1 and 2×10^5 cells/flask on day 4. The culture medium consisted of MEM+Earle's-L Glutamine (Gibco #21090-022) supplemented with 10% Australian Fetal Calf Serum (Sigma #F6178), 2 mM L-Glutamine (Gibco #25030-024) and 1× Non Essential Amino Acids (Gibco #11140-035)
On day 1, a 24-well plate (Sarstedt, #83.1836.300) was filled with individual 3 lam pore membrane inserts (Millipore, #PITP 012 50). Each plate allows the testing of a cocktail of 3 control compounds and 11 test compounds in duplicate. The wells (outside the inserts) were filled with 500 μl of culture medium.
A flask of cells was trypsinised and a cell count carried out. Cells were diluted to 1.2×10^5 cells/ml (1×10^5 cells/cm^2) and 500 μl dispensed in each insert on the 24-well plate. The plate was incubated at 37° C. in a 5% CO2 environment for 48 hours.
On day 3, the culture medium was removed from the wells, then the inserts and is replaced with fresh culture medium in the wells, then the inserts (500111 per well and insert) The plate was incubated at 37° C. in a 5% CO2 environment for 24 hours.
On day 4, the controls cocktail and test compounds solutions were made up in HBSS buffer (Hank's Balanced Salt Solution, Gibco #14025-050) at 1011M. The final controls and test compounds concentration in the assay was 10 μM, and DMSO concentration maintained at 0.1% (0.3% for the controls cocktail). The controls cocktail was made up of Atenolol (Sigma # A-7655), Dexamethasone (Sigma #D-1756) and Propranolol (Sigma # P-0884).
A 24-well plate was filled with 500 μl of HBSS buffer per well (assay plate) The culture medium was removed from the wells and inserts. The inserts were washed three times with approximately 500 μl of HBSS buffer. The inserts were transferred to the assay plate. Controls cocktail and test compounds solutions were dispensed inside the inserts (500 μl per insert), in duplicates. The assay plate was incubated at 37° C. in a 5% CO2 environment for 2 hours.
After 2 hours, the inserts were removed from the assay plate and transferred into a new 24-well plate (wash plate) The assay plate containing the receiver solutions was left aside for later sampling. To measure the mass balance, 150 μl were sampled from each insert (donor solutions) and dispensed into 150 μl of HPLC-grade Acetonitrile (Fisher Scientific) containing an internal standard and 0.05% formic acid.
The donor solutions were aspirated and discarded from each insert, and the inserts washed once with approximately 500 μl of HBSS buffer. A 24-well plate was filled with 500 μl of HBSS buffer per well (monolayer integrity plate) A Lucifer Yellow (Sigma #L0144) solution was made up at 1001.1M in HBSS buffer. The empty inserts were transferred into the monolayer integrity plate and filled with 500 μl of the Lucifer Yellow solution to determine the cell monolayers integrity and leftover of the solution was kept in a fridge. The plate was incubated at 37° C. in a 5% CO2 environment for 2 hours.
In the meantime, 150 μl were sampled from the assay plate (receiver solutions) and dispensed into 150 μl of HPLC-grade Acetonitrile containing an internal standard and 0.05% formic acid. A calibration curve was made for each mix of compounds (as appropriate depending on compounds molecular weights) A 10 μM mix of compounds in HBSS buffer was diluted 1:1 in HPLC-grade Acetonitrile containing an internal standard and 0.05% formic acid. A 1:1 mix of HBSS buffer and HPLC-grade Acetonitrile containing an internal standard and 0.05% formic acid was made up and used to make up the calibration curve (2 fold dilutions), with concentrations ranging from 10 μM to 0.078 μM. […]

[3] = test system: HCV genotype 1a replicon cells Htat2ANeo; assay: 1a Replicon Assay (cell-based anti-NS5a ELISA); conditions: Hepatitis C virus, 72 h
How it was run: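 HCV 1a Htat2ANeo replicon cells (Et2AN control cells) exposed to compound for 72 h at 37° C without G418/blasticidin. NS5a quantified by cell-based ELISA (anti-NS5a, HRP/OPD, A490); IC50 from percentage reduction versus untreated control. Cytotoxicity TD50 by Cell Titre Blue fluorescence (ex 570/em 590 nm) versus DMSO controls.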

[4] = read-out: pIC50 1b Replicon (converted)
[5] = read-out: pIC50 1a Replicon (converted)

SMILES | IC50 ([1]; read-out: HCV IC50 1b Replicon) [nM] | IC50 [1, 4] [nM] | HCV TD50 Replicon [2] [µM] | Papp at 2 h, 10 µM (in vitro) [×10⁻⁶ cm/s] | IC50 ([3]; read-out: HCV IC50 Elisa 1a) [nM] | IC50 [3, 5] [nM]
COC(=O)N[C@@H](C(=O)N1CCC[C@H]1c1ncc(-c2ccc(-c3ccc(C(=O)Nc4ccc(CN5CCS(=O)(=O)CC5)cc4)cc3)cc2)[nH]1)C(C)C [Example 13, Methyl N-[(1R)-1-[(2S)-2-[5-[4-[4-[[4-[(1,1-dioxo-1,4-thiazinan-4-yl)methyl]phenyl]carbamoyl]phenyl]phenyl]-1H-imidazol-2-yl]pyrrolidine-1-carbonyl]-2-methyl-propyl]carbamate] | 42.2 | 41.7 | >25 | 0.3 |  | 
COC(=O)N[C@H](CC(C)C)C(=O)N1CCC[C@H]1c1ncc(-c2ccc(-c3ccc(C(=O)Nc4ccc(CN5CCS(=O)(=O)CC5)cc4)cc3)cc2)[nH]1 [Example 15, Methyl N-[(1R)-1-[(2S)-2-[5-[4-[4-[[4-[(1,1-dioxo-1,4-thiazinan-4-yl)methyl]phenyl]carbamoyl]phenyl]phenyl]-1H-imidazol-2-yl]pyrrolidine-1-carbonyl]-3-methyl-butyl]carbamate] | 3.84 | 3.8 | >25 | 0.3 |  | 
COC(=O)N[C@@H](C)C(=O)N1CCC[C@@H]1c1ncc(-c2ccc(-c3ccc(C(=O)Nc4ccc(CN5CCS(=O)(=O)CC5)cc4)cc3)cc2)[nH]1 [Example 21, Methyl N-[(1S)-2-[(2R)-2-[5-[4-[4-[[4-[(1,1-dioxo-1,4-thiazinan-4-yl)methyl]phenyl]carbamoyl]phenyl]phenyl]-1H-imidazol-2-yl]pyrrolidin-1-yl]-1-methyl-2-oxo-ethyl]carbamate] | 418 | 417 |  | 1.4 |  | 
COC(=O)N[C@H](C(=O)N1CCC[C@@H]1c1ncc(-c2ccc(-c3ccc(C(=O)Nc4ccc(CN5CCS(=O)(=O)CC5)cc4)cc3)cc2)[nH]1)C(C)(C)C [Example 22, Methyl N-[(1S)-1-[(2R)-2-[5-[4-[4-[[4-[(1,1-dioxo-1,4-thiazinan-4-yl)methyl]phenyl]carbamoyl]phenyl]phenyl]-1H-imidazol-2-yl]pyrrolidine-1-carbonyl]-2,2-dimethyl-propyl]carbamate] | 266 | 263 |  | 0.55 |  | 
COC(=O)N[C@H](C(=O)N1CCC[C@H]1c1ncc(-c2ccc(-c3cccc(C(=O)Nc4ccc(CN5CCS(=O)(=O)CC5)cc4)c3)cc2)[nH]1)c1ccccc1 [Example 30, Methyl N-[(1S)-2-[(2S)-2-[5-[4-[3-[[4-[(1,1-dioxo-1,4-thiazinan-4-yl)methyl]phenyl]carbamoyl]phenyl]phenyl]-1H-imidazol-2-yl]pyrrolidin-1-yl]-2-oxo-1-phenyl-ethyl]carbamate] | 1.2 | 1.2 | >25 |  | 2480 | 2450
COC(=O)N[C@@H](C(=O)N1CCC[C@H]1c1ncc(-c2ccc(-c3cccc(C(=O)Nc4ccc(CN5CCS(=O)(=O)CC5)cc4)c3)cc2)[nH]1)c1ccccc1 [Example 31, Methyl N-[(1R)-2-[(2S)-2-[5-[4-[3-[[4-[(1,1-dioxo-1,4-thiazinan-4-yl)methyl]phenyl]carbamoyl]phenyl]phenyl]-1H-imidazol-2-yl]pyrrolidin-1-yl]-2-oxo-1-phenyl-ethyl]carbamate] | 0.91 | 0.912 | >25 |  | 2700 | 2690
CCN(CC)[C@@H](C(=O)N1CCC[C@H]1c1ncc(-c2ccc(-c3cccc(C(=O)Nc4ccc(CN5CCS(=O)(=O)CC5)cc4)c3)cc2)[nH]1)c1ccccc1 [Example 32, 3-[4-[2-[(2S)-1-[(2R)-2-(diethylamino)-2-phenyl-acetyl]pyrrolidin-2-yl]-1H-imidazol-5-yl]phenyl]-N-[4-[(1,1-dioxo-1,4-thiazinan-4-yl)methyl]phenyl]benzamide] | 0.21 | 0.209 | >25 |  | 1150 | 1150
COC(=O)N[C@H](C(=O)N1CCOC[C@H]1c1ncc(-c2ccc(-c3ccc(C(=O)Nc4ccc(CN5CCS(=O)(=O)CC5)cc4)cc3)cc2)[nH]1)C(C)C [Example 46, Methyl N-[(1S)-1-[(3R)-3-[5-[4-[4-[[4-[(1,1-dioxo-1,4-thiazinan-4-yl)methyl]phenyl]carbamoyl]phenyl]phenyl]-1H-imidazol-2-yl]morpholine-4-carbonyl]-2-methyl-propyl]carbamate] | 0.71 | 0.708 | >25 |  | 19.4 | 19.5
CC(C)(C)OC(=O)N[C@H](C(=O)N1CCOC[C@H]1c1ncc(-c2ccc(-c3ccc(C(=O)Nc4ccc(CN5CCS(=O)(=O)CC5)cc4)cc3)cc2)[nH]1)c1ccccc1 [Example 48, tert-Butyl N-[(1S)-2-[(3R)-3-[5-[4-[4-[[4-[(1,1-dioxo-1,4-thiazinan-4-yl)methyl]phenyl]carbamoyl]phenyl]phenyl]-1H-imidazol-2-yl]morpholin-4-yl]-2-oxo-1-phenyl-ethyl]carbamate] | 0.51 | 0.513 | >25 |  | 52.6 | 52.5
CN(C)[C@@H](C(=O)N1CCOC[C@H]1c1ncc(-c2ccc(-c3ccc(C(=O)Nc4ccc(CN5CCS(=O)(=O)CC5)cc4)cc3)cc2)[nH]1)c1ccccc1 [Example 49, 4-[4-[2-[(3R)-4-[(2R)-2-(dimethylamino)-2-phenyl-acetyl]morpholin-3-yl]-1H-imidazol-5-yl]phenyl]-N-[4-[(1,1-dioxo-1,4-thiazinan-4-yl)methyl]phenyl]benzamide] | 0.88 | 0.891 | 19.7 |  | 77.8 | 77.6
